The NIST ThermoML archive (doi:10.1016/j.tca.2017.09.013)
Numbers after ± are expanded uncertainties.

Experiments:
[1] = Molar enthalpy of transition or fusion; conditions: Crystal; DSC
[2] = molar heat capacity at constant pressure; conditions: 101.33 kPa, Metastable liquid, Small sample (50 mg) DSC

## c1ccc2cc3ccccc3cc2c1 [anthracene]
[1]
  Molar enthalpy of transition or fusion: 27.3 ± 2.9 kJ/mol

## Nc1cc[nH]c(=O)n1 [4-amino-2-hydroxypyrimidine]
Crystal, DTA
  Normal melting temperature: 334 ± 3 °C
Glass, DSC
  Glass transition temperature: 115 ± 3 °C
[2]; 408 K
  molar heat capacity at constant pressure: 268 ± 36 J/K/mol
[2]; 413 K
  molar heat capacity at constant pressure: 269 ± 38 J/K/mol
[2]; 418 K
  molar heat capacity at constant pressure: 271 ± 40 J/K/mol
[2]; 423 K
  molar heat capacity at constant pressure: 272 ± 42 J/K/mol
[2]; 428 K
  molar heat capacity at constant pressure: 274 ± 44 J/K/mol
[1]
  Molar enthalpy of transition or fusion: 34.9 ± 2.3 kJ/mol
